“And” between values parts separate entries of the source, which are not always exact repeats. Identical values can stand only once. Toxic doses and inconclusive results are not listed.
Test system: CD2F1 mice, L1210 leukemia ip, survival T/C
Test: NCI In Vivo Anticancer Drug Screen. Data for tumor model L1210 Leukemia (intraperitoneal) in CD2F1 (CDF1) mice
Details: higher = longer survival
How it was run: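 Compound-dosed mice with transplantable tumor versus matched vehicle controls; endpoint ratio T/C reported.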

[1] = endpoint: mean survival time, dose: 6.25 mg/kg/injection, schedule: Q01DX009 (ip), vehicle: saline with Tween-80
[2] = endpoint: mean survival time, dose: 12.5 mg/kg/injection, schedule: Q01DX009 (ip), vehicle: saline with Tween-80
[3] = endpoint: mean survival time, dose: 25.0 mg/kg/injection, schedule: Q01DX009 (ip), vehicle: saline with Tween-80
[4] = endpoint: mean survival time, dose: 100.0 mg/kg/injection, schedule: Q04DX003 (ip), vehicle: saline with Tween-80
[5] = endpoint: mean survival time, dose: 200.0 mg/kg/injection, schedule: Q04DX003 (ip), vehicle: saline with Tween-80
[6] = endpoint: mean survival time, dose: 400.0 mg/kg/injection, schedule: Q04DX003 (ip), vehicle: saline with Tween-80
[7] = endpoint: mean survival time, dose: 100.0 mg/kg/injection, schedule: Q01DX009 (ip), vehicle: saline with Tween-80
[8] = endpoint: mean survival time, dose: 200.0 mg/kg/injection, schedule: Q01DX009 (ip), vehicle: saline with Tween-80

NC(CS(=O)c1ccc(Cl)cc1)C(=O)O (stereo unspecified)
T/C [1]: 90 % of control | T/C [2]: 94 % of control | T/C [3]: 96 % of control

C#CCN(Cc1ccc2nc(N)[nH]c(=O)c2c1)c1ccc(C(=O)NC(CCC(=O)O)C(=O)O)cc1 (stereo unspecified)
T/C (endpoint: median survival time, dose: 7.5 mg/kg/injection, schedule: Q01DX009 (ip), vehicle: sodium bicarbonate): 109 % of control | T/C (endpoint: median survival time, dose: 15.0 mg/kg/injection, schedule: Q01DX009 (ip), vehicle: sodium bicarbonate): 105 % of control and 109 % of control | T/C (endpoint: median survival time, dose: 25.0 mg/kg/injection, schedule: Q01DX005 (ip), vehicle: water): 108 % of control | T/C (endpoint: median survival time, dose: 30.0 mg/kg/injection, schedule: Q01DX009 (ip), vehicle: sodium bicarbonate): 117 % of control and 109 % of control | T/C (endpoint: median survival time, dose: 50.0 mg/kg/injection, schedule: Q01DX005 (ip), vehicle: water): 109 % of control | T/C (endpoint: median survival time, dose: 86.4 mg/kg/injection, schedule: Q01DX005 (ip), vehicle: water): 121 % of control | T/C (endpoint: median survival time, dose: 120.0 mg/kg/injection, schedule: Q01DX009 (ip), vehicle: sodium bicarbonate): 156 % of control and 185 % of control | T/C (endpoint: median survival time, dose: 144.0 mg/kg/injection, schedule: Q01DX005 (ip), vehicle: water): 162 % of control | T/C (endpoint: median survival time, dose: 400.0 mg/kg/injection, schedule: Q01DX005 (ip), vehicle: water): 161 % of control

CC(C)C(C(O)c1ccccc1)[N+](=O)[O-] (stereo unspecified)
T/C (endpoint: mean survival time, dose: 100.0 mg/kg/injection, schedule: Q01DX009 (ip), vehicle: saline sonified): 102 % of control | T/C [4]: 102 % of control | T/C (endpoint: mean survival time, dose: 200.0 mg/kg/injection, schedule: Q01DX009 (ip), vehicle: saline sonified): 102 % of control | T/C [5]: 96 % of control | T/C (endpoint: mean survival time, dose: 400.0 mg/kg/injection, schedule: Q01DX009 (ip), vehicle: saline sonified): 100 % of control | T/C [6]: 100 % of control

CNC(=O)Nc1nncs1
T/C [7]: 97 % of control | T/C [8]: 104 % of control | T/C (endpoint: mean survival time, dose: 400.0 mg/kg/injection, schedule: Q01DX009 (ip), vehicle: saline with Tween-80): 92 % of control

CC(O)C1CCC2C3CCC4CC(O)CCC4(C)C3CCC12C (stereo unspecified)
T/C [4]: 95 % of control | T/C [5]: 96 % of control | T/C [6]: 101 % of control

CN(C)NC(=O)CC(NCc1ccccc1)C(=O)O (stereo unspecified)
T/C [4]: 102 % of control | T/C [5]: 101 % of control | T/C [6]: 98 % of control

O=C1C(Cl)=C(NCc2ccccc2Cl)C(=O)c2ccccc21
T/C (endpoint: mean survival time, dose: 12.5 mg/kg/injection, schedule: Q01DX001 (ip), vehicle: saline with Tween-80): 108 % of control | T/C (endpoint: mean survival time, dose: 25.0 mg/kg/injection, schedule: Q01DX001 (ip), vehicle: saline with Tween-80): 108 % of control

O=C(N/N=C/c1ccc(Cl)cc1)c1ccc(Cl)cc1
T/C [4]: 101 % of control | T/C [5]: 93 % of control | T/C [6]: 108 % of control

NC(CCc1ccc2c(c1)OCO2)C(=O)O (stereo unspecified)
T/C (endpoint: mean survival time, dose: 100.0 mg/kg/injection, schedule: Q01DX001 (ip), vehicle: saline with Tween-80): 97 % of control | T/C (endpoint: mean survival time, dose: 200.0 mg/kg/injection, schedule: Q01DX001 (ip), vehicle: saline with Tween-80): 100 % of control | T/C (endpoint: mean survival time, dose: 400.0 mg/kg/injection, schedule: Q01DX001 (ip), vehicle: saline with Tween-80): 90 % of control

NC(N)=N/N=C/c1ccncc1
T/C (endpoint: mean survival time, dose: 100.0 mg/kg/injection, schedule: Q04DX002 (ip), vehicle: saline): 92 % of control

Cc1cc(NS(=O)(=O)c2ccc(N=Nc3cc(N=Nc4ccc(S(=O)(=O)Nc5cc(C)nc(C)n5)cc4)c4c(NC(=O)C(Cl)Cl)cccc4c3OC(=O)C(Cl)Cl)cc2)nc(C)n1 (tested in a mixture with another compound)
T/C (endpoint: median survival time, dose: 12.5 mg/kg/injection, schedule: Q01DX009 (ip), vehicle: suspension in saline): 103 % of control | T/C (endpoint: median survival time, dose: 25.0 mg/kg/injection, schedule: Q01DX009 (ip), vehicle: suspension in saline): 103 % of control | T/C (endpoint: median survival time, dose: 50.0 mg/kg/injection, schedule: Q01DX009 (ip), vehicle: suspension in saline): 98 % of control | T/C (endpoint: median survival time, dose: 100.0 mg/kg/injection, schedule: Q01DX009 (ip), vehicle: suspension in saline): 104 % of control | T/C (endpoint: median survival time, dose: 200.0 mg/kg/injection, schedule: Q01DX009 (ip), vehicle: suspension in saline): 104 % of control

NS(=O)(=O)c1ccc(N2CCCCC2)c([N+](=O)[O-])c1
T/C (endpoint: mean survival time, dose: 100.0 mg/kg/injection, schedule: Q01DX009 (ip), vehicle: other): 95 % of control | T/C (endpoint: mean survival time, dose: 100.0 mg/kg/injection, schedule: Q04DX002 (ip), vehicle: saline with Tween-80): 91 % of control | T/C (endpoint: mean survival time, dose: 200.0 mg/kg/injection, schedule: Q01DX009 (ip), vehicle: other): 95 % of control | T/C (endpoint: mean survival time, dose: 200.0 mg/kg/injection, schedule: Q04DX002 (ip), vehicle: saline with Tween-80): 98 % of control | T/C (endpoint: mean survival time, dose: 400.0 mg/kg/injection, schedule: Q01DX009 (ip), vehicle: other): 101 % of control | T/C (endpoint: mean survival time, dose: 400.0 mg/kg/injection, schedule: Q04DX002 (ip), vehicle: saline with Tween-80): 100 % of control

O=[P+](O)O[P+](=O)O.O=[P+](O)O[P+](=O)O.O=[P+](O)O[P+](=O)O.O=[P+](O)O[P+](=O)O.[Pt].[Pt]
T/C (endpoint: median survival time, dose: 3.12 mg/kg/injection, schedule: Q04DX003 (ip), vehicle: saline): 98 % of control | T/C (endpoint: median survival time, dose: 6.25 mg/kg/injection, schedule: Q04DX003 (ip), vehicle: saline): 98 % of control | T/C (endpoint: median survival time, dose: 12.5 mg/kg/injection, schedule: Q04DX003 (ip), vehicle: saline): 96 % of control | T/C (endpoint: median survival time, dose: 25.0 mg/kg/injection, schedule: Q04DX003 (ip), vehicle: saline): 98 % of control | T/C (endpoint: median survival time, dose: 50.0 mg/kg/injection, schedule: Q04DX003 (ip), vehicle: saline): 105 % of control

CCOC(=O)Nc1cc2c(c(N)n1)N=C(c1ccccc1)CN2
T/C (endpoint: median survival time, dose: 0.63 mg/kg/injection, schedule: Q01DX009 (ip), vehicle: saline with Tween-80): 118 % of control and 101 % of control | T/C (endpoint: median survival time, dose: 0.75 mg/kg/injection, schedule: Q01DX009 (ip), vehicle: saline with Tween-80): 106 % of control

CCCCC(C#N)C(=O)OCC (stereo unspecified)
T/C [4]: 96 % of control | T/C [5]: 93 % of control

CN1C(=O)c2ccccc2C1(c1ccccc1)c1ccccc1
T/C [4]: 92 % of control | T/C [5]: 103 % of control | T/C [6]: 102 % of control

OC(c1cc2ccc(C(F)(F)F)cc2c2cc(C(F)(F)F)ccc12)C1CCCCN1 (stereo unspecified)
T/C (endpoint: mean survival time, dose: 9.4 mg/kg/injection, schedule: Q01DX009 (ip), vehicle: saline): 101 % of control | T/C (endpoint: mean survival time, dose: 18.8 mg/kg/injection, schedule: Q01DX009 (ip), vehicle: saline): 102 % of control | T/C (endpoint: mean survival time, dose: 37.5 mg/kg/injection, schedule: Q01DX009 (ip), vehicle: saline): 96 % of control

CN(Cc1cnc2nc(N)nc(N)c2c1)c1ccc(C(=O)NC(CCC(=O)O)C(=O)O)cc1 (stereo unspecified)
T/C (endpoint: median survival time, dose: 4.0 mg/kg/injection, schedule: Q01DX005 (ip), vehicle: other): 158 % of control | T/C (endpoint: median survival time, dose: 8.0 mg/kg/injection, schedule: Q01DX005 (ip), vehicle: other): 158 % of control

CO[C@@H](C=O)O[C@@H](C=O)CO
T/C (endpoint: mean survival time, dose: 70.0 mg/kg/injection, schedule: Q01DX001 (ip), vehicle: saline): 121 % of control | T/C (endpoint: mean survival time, dose: 140.0 mg/kg/injection, schedule: Q01DX001 (ip), vehicle: saline): 121 % of control

Cc1cccc(N=Cc2ccc3c(c2)OCO3)c1
T/C (endpoint: mean survival time, dose: 100.0 mg/kg/injection, schedule: Q04DX003 (ip), vehicle: Klucel (hydroxypropylcellulose) (HPC)): 100 % of control | T/C (endpoint: mean survival time, dose: 200.0 mg/kg/injection, schedule: Q04DX003 (ip), vehicle: Klucel (hydroxypropylcellulose) (HPC)): 111 % of control

CC(C)(C)NC/C(=C\c1ccccc1)C(=O)c1ccccc1
T/C (endpoint: mean survival time, dose: 25.0 mg/kg/injection, schedule: Q04DX003 (ip), vehicle: saline with Tween-80): 109 % of control | T/C (endpoint: mean survival time, dose: 50.0 mg/kg/injection, schedule: Q04DX003 (ip), vehicle: saline with Tween-80): 100 % of control | T/C [4]: 117 % of control

COc1cc(C2CNCc3cc(OC)c(OC)cc32)ccc1O (stereo unspecified)
T/C (endpoint: mean survival time, dose: 75.0 mg/kg/injection, schedule: Q01DX001 (ip), vehicle: saline): 96 % of control | T/C (endpoint: mean survival time, dose: 150.0 mg/kg/injection, schedule: Q01DX001 (ip), vehicle: saline): 104 % of control | T/C (endpoint: mean survival time, dose: 300.0 mg/kg/injection, schedule: Q01DX001 (ip), vehicle: saline): 100 % of control

COC(=Nc1ccccc1)SSC(C)C
T/C [1]: 93 % of control and 101 % of control | T/C [2]: 97 % of control and 108 % of control | T/C [3]: 98 % of control and 104 % of control | T/C (endpoint: mean survival time, dose: 50.0 mg/kg/injection, schedule: Q01DX009 (ip), vehicle: saline with Tween-80): 98 % of control and 108 % of control | T/C [7]: 106 % of control | T/C [8]: 108 % of control

CCOC(=O)c1ccc(NS(=O)c2ccccc2)cc1 (stereo unspecified)
T/C (endpoint: mean survival time, dose: 100.0 mg/kg/injection, schedule: Q01DX001 (ip), vehicle: saline): 95 % of control | T/C (endpoint: mean survival time, dose: 100.0 mg/kg/injection, schedule: Q04DX003 (ip), vehicle: saline): 109 % of control | T/C (endpoint: mean survival time, dose: 200.0 mg/kg/injection, schedule: Q01DX001 (ip), vehicle: saline): 95 % of control | T/C (endpoint: mean survival time, dose: 200.0 mg/kg/injection, schedule: Q04DX003 (ip), vehicle: saline): 108 % of control | T/C (endpoint: mean survival time, dose: 400.0 mg/kg/injection, schedule: Q01DX001 (ip), vehicle: saline): 94 % of control | T/C (endpoint: mean survival time, dose: 400.0 mg/kg/injection, schedule: Q04DX003 (ip), vehicle: saline): 103 % of control
